The results in this text go back to patent US12459938B2, “ORAI channel inhibitors” (Beth Israel Deaconess Medical Center, Inc., priority 2019, dated 2025).

Common to all, as to assay type: cell-based
The subject of one assay is NFAT. Put plainly: NFAT activation assay (luciferase reporter, PMA and ionomycin). The note with it: Homo sapiens; 10 μM compound; Jurkat cells; 15 nM PMA and 0.5 μM ionomycin; 18 hours; read-out: Activity 10 μM (% inhibition of NFAT luciferase luminescence). As for the experimental part:
Jurkat cells (BPS Bioscience catalog No. 60621) were seeded at 40,000 cells per well into white clear-bottom 96-well microplate in 80 μl of growth medium without Geneticin. 10 μl of testing compounds (final 10 μM) were added to each well and preincubated with cells for half an hour. Then 10 μl of PMA and ionomycin mixture were added to each well to make the final concentration of 15 nM PMA and 0.5 μM ionomycin. Cells were incubated at 37° C. and 5% CO2 incubator for 18 hours. After treatment, cells were lysed and the luciferase assay was performed using ONE-Step luciferase assay system by adding 100 μl of One-Step Luciferase reagent (BPS Bioscience catalog No. 60690) per well followed by rocking at room temperature for about 30 minutes. Luminescence was measured using a luminometer (BioTek Synergym™ 2 microplate reader). The percent luminescence in the presence of each compound was calculated according to the following equation: % Luminescence=(L−Lb)/(Lt−Lb), where L=the luminescence intensity in the presence of the compound, Lb=the luminescence intensity in the absence of cells, and Lt=the luminescence intensity in the absence of the compound. The percent inhibition was calculated by: % inhibition=100−(% Luminescence).

The test system of the next assay is TNF-α. Put plainly: TNF-α release from rat mast cells (ELISA). The note with it: Mast cell, RBL rat mast cells, control = DMSO; for activity at 1 µM: 1 μM compound; for activity at 10 µM: 10 μM compound. As for the experimental part:
(§1) [Ca^2+]ER in RBL (ATCC) rat mast cells were depleted by Tg in the presence of a test compound. Then […] DMEM-2% FBS (containing 5 mM Ca^2+) was supplemented back in the presence of the corresponding concentration of MCS-01.
(§2) Thirty minutes after replenishing Ca^2+ the culture supernatant was collected for MC degranulation and cytokine release. Degranulation was measured as percent secreted β-hexosaminidase (β-Hex) according to the protocol of the assay kit (Sigma-Aldrich, MO, USA). At this time point TNF-α was also measured using ELISA kit (R&D Systems, MN, USA).
The inhibitory activity of the tested compound in the TNF-α assay was presented as % of control (DMSO).
(ELISA stands for enzyme-linked immunosorbent assay.)

In assay [1] the test system is Rat mast cells (RBL-2H3 cells). In words: Calcium influx assay (Fluo-4NW, thapsigargin store depletion, Ca2+ re-addition). Conditions: control = DMSO, read-out: Fluo-4NW fluorescence (Ca2+ influx), % of control; for activity at 1 µM: 1 μM compound; for activity at 10 µM: 10 μM compound. As for the experimental part: Rat mast cells (RBL-2H3 cells) (ATCC) were seeded in 96-well plate at 4×10^4 cells per well in DMEM-supplemented with 2% FBS and allowed to adhere overnight. Culture medium was then replaced with 50 μl of Ca^2+-free Tyrode buffer to load Ca^2+-probe Fluo-4NW (Molecular Probe, Thermo Fisher, MA, USA) per manufacturer instruction. A testing compound at indicated concentrations was supplied during the probe loading from the beginning. Cells were incubated in the presence or absence of a testing compound for 60 minutes in the Ca^2+-free medium at 37° C. During the last 5 minutes of incubation, cells were treated with 1 μM thapsigargin (Tg, Sigma Aldrich) to deplete [Ca^2+]ER, 20 mM CaCl2 in normal saline solution was supplemented back to the [Ca^2+]ER-depleted cells to have 2 mM as final concentration. Culture medium was removed 1 minute after Ca^2+ reloading, and changes in Fluo-4NW fluorescence (RFU) were recorded with the multi-mode plate reader (FilterMax F5, Molecular Devices/Thermo Fisher Scientific, MA, USA) at an excitation wavelength of 485 nm and an emission wavelength of 535 nm. The inhibitory activity of the tested compound was presented as % of control (DMSO).

Another assay relates to IL-2. Put plainly: Interleukine-2 (IL-2) assay (ELISA, PMA and TG stimulated). The note with it: Human Jurkat T cells; PMA (10 nM) and TG (100 nM); 8 hours; read-out: IC50 (IL-2 levels). As for the experimental part:
Human Jurkat T cells (ATCC) were plated in Dubelcco's Modified Eagle Medium (DMEM) with 1% FBS in a 96 well plate at a density of 1×10^6 cells/well. Cells were treated with a testing compound at different concentrations and stimulated by PMA (10 nM) and TG (100 nM). The treated cells were incubated at 8 hours. The supernatants were collected and assayed for IL-2 levels by ELISA according to the manufacturer's protocols. The IC50 of Example 2 was determined to be 3 μM.

A further assay concerns RBL rat mast cells. In words: Degranulation of rat mast cells (secreted β-hexosaminidase). The note with it: Mast cell, 0.5 h, Tg depletion, 30 minutes after replenishing Ca2+. As for the experimental part:
as §1, §2

On to `O=C(Nc1ccncc1F)c1cn(CC2CCC2)c2ccccc12` [Example 8, 1-(cyclobutylmethyl)-N-(3-fluoropyridin-4-yl)-1H-indole-3-carboxamide], for which, in the assay on NFAT, the inhibition at 10 µM was over 75%. In addition, in the assay with TNF-α, the activity at 1 µM is 79% and the activity at 10 µM came out at 51%. In assay [1], the activity at 1 µM was 50% and the activity at 10 µM was 25%.
Regarding `Cc1cnccc1NC(=O)c1cn(CC2CCC2)c2ccccc12` [Example 9, 1-(cyclobutylmethyl)-N-(3-methylpyridin-4-yl)-1H-indole-3-carboxamide], in the assay with NFAT, the inhibition at 10 µM was over 75%. Further, in assay [1], the activity at 1 µM was found to be 81% and the activity at 10 µM worked out at 65%.
Turning to `O=C(Nc1c(F)cccc1F)c1cn(CC2CC2)c2ccccc12` [Example 1, 1-(cyclopropylmethyl)-N-(2,6-difluorophenyl)-1H-indole-3-carboxamide], the inhibition at 10 µM in the assay with NFAT was 51 to 75%. Besides, in assay [1], the activity at 1 µM was found to be 75% and the activity at 10 µM is 42%.
Regarding `O=C(Nc1ccncc1F)c1cn(CC2CC2)c2ccccc12` [Example 13, 1-(cyclopropylmethyl)-N-(3-fluoropyridin-4-yl)-11/-indole-3-carboxamide], in the assay with NFAT, the inhibition at 10 µM was over 75%. In addition, the activity at 1 µM with TNF-α stood at 67%; in assay [1], 63%. Further, the activity at 10 µM was 53% in the assay with TNF-α and 31% in assay [1].
For `Cc1cnccc1NC(=O)c1cn(CC2CC2)c2ccccc12` [Example 4, 1-(cyclopropylmethyl)-N-(3-methylpyridin-4-yl)-1H-indole-3-carboxamide], in the assay on NFAT, the inhibition at 10 µM was 51 to 75%. Besides, in assay [1], the activity at 1 µM was 61% and the activity at 10 µM turned out to be 44%.
Regarding `O=C(Nc1c(F)cncc1F)c1cn(CC2CCC2)c2ccccc12` [Example 7, 1-(cyclobutylmethyl)-N-(3,5-difluoropyridin-4-yl)-1H-indole-3-carboxamide], the inhibition at 10 µM in the assay with NFAT lay in the range of 51 to 75%. Further, in assay [1], the activity at 1 µM is 85% and the activity at 10 µM came out at 80%.
Consider `Cc1cnccc1NC(=O)c1nn(CC2CCC2)c2c1CCCC2` [Example 40, 1-(cyclobutylmethyl)-N-(3-methylpyridin-4-yl)-4,5,6,7-tetrahydro-1H-indazole-3-carboxamide], for which the inhibition at 10 µM in the assay on NFAT was over 75%.
The same measure, in the same setting: the same measure for `O=C(Nc1ccn(CC2CC2)n1)c1ccncc1F` [Example 28, N-(1-(cyclopropylmethyl)-1H-pyrazol-3-yl)-3-fluoroisonicotinamide]: under 25%.
As to `O=C(Nc1c(F)cncc1F)c1cn(CC2CC2)c2ccccc12` [Example 3, 1-(cyclopropylmethyl)-N-(3,5-difluoropyridin-4-yl)-1H-indole-3-carboxamide], the inhibition at 10 µM with NFAT lay in the range of 51 to 75%. Besides, in assay [1], the activity at 1 µM stood at 66% and the activity at 10 µM was found to be 37%.
As for `O=C(Nc1ccncc1F)c1cn(CC2CC2)c2cnccc12` [Example 16, 1-(cycloproylmethyl)-N-(3-fluoropyridin-4-yl)-1H-pyrrolo[2,3-c]pyridine-3-carboxamide], the inhibition at 10 µM in the assay on NFAT was under 25%.
Turning to `O=C(Nc1c(F)cccc1Cl)c1cn(CC2CC2)c2ccccc12` [Example 2, N-(2-chloro-6-fluorophenyl)-1-(cyclopropylmethyl)-1H-indole-3-carboxamide], the IC50 amounted to 3000 nM with IL-2 and 1200 nM in the assay with RBL rat mast cells. The values for the activity at 1 µM (in the assay with TNF-α; in assay [1]) were 57% and 46%, respectively. The results for the activity at 10 µM (in the assay with TNF-α; in assay [1]) were 30% and 14%, respectively.

Broadly, the inhibition is the share of the control response that was lost under treatment. What is called IC50 is the concentration that inhibits the measured activity by half.
